Assay results published in paper PMC7710018, “Restoration of motor learning in a mouse model of Rett syndrome following long-term treatment with a novel small-molecule activator of TrkB” (Disease Models & Mechanisms, 2020).

System: heterozygous (Het) female Mecp2 mutant mice
Assay: Foot slip
Type: in vivo, mouse
Conditions: chronic treatment, 24 h after last treatment (data not shown)
Method: Small-molecule compounds were diluted in saline and delivered by i.p. injection. To define the acute effects of single drug treatments, behavioral testing was initiated 1 h after dosing. Durable effects of single drug treatments were evaluated 24 h after dosing. To define the effects of repeated dosing, mice were treated once every 3 days (q72 h) for 4 or 8 weeks, and behavioral testing was performed 24 h after the last dose.
Foot slip was used to assess locomotor coordination and spontaneous movement on a challenging substrate. Animals were placed on an elevated wire mesh surface (50 cm^2) with 1 cm^2 openings and allowed to freely explore for 5 min ([Starkey et al., 2005]). Total distance traveled was measured by a computer-operated animal activity system (ANY-maze, Stoelting). The total number of forepaw and hindpaw slips, where the foot came completely through the grate with no toes remaining on the grid, was manually counted, and the number of slips/cm traveled was calculated.
Figure S3. Single administration of PTX-BD4-3 reduces foot slip errors in Het mice. Mice received a single injection of PTX-BD4-3 (P.1, P.5, P.50) one hour prior to the beginning of foot slip testing. n = 10-23 animals derived from 3 […]
***p<0.001 compared to saline-treated Wt mice (V, black bar), †p<0.05 compared to saline-treated Het mice (V, grey bar); One-Way ANOVA with LSD post-hoc analysis. […]

With COCCN(C)C(=O)c1cc(C(=O)N(C)CCOC)cc(C(=O)N(C)CCOC)c1 [PTX-BD4-3, benzene-1,3,5-tricarboxylic acid tris-[(2-methoxy-ethyl)-methyl-amide]] the foot slip errors was “no reduction”.
